According to paper PMC10355191 (Chemical research in toxicology, 2023):

Biological target: α2A-adrenergic receptor (Homo sapiens, UniProt P08913)
Sequence (P08913 whole entry): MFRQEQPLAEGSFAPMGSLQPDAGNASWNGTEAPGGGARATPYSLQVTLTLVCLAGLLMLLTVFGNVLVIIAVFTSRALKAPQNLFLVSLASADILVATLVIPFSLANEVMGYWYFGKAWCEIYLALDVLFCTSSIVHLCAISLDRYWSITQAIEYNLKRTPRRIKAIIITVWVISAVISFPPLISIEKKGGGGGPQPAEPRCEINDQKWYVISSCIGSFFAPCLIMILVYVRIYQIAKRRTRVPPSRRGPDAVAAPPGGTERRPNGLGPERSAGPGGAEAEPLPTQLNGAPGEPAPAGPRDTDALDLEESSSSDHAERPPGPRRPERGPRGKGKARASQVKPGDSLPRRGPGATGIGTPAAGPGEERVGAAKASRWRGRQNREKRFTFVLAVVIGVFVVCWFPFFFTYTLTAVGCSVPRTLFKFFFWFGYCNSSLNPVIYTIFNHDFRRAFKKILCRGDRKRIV

- % inhibition at 1 μM: 50
SMILES: N=C(N)N/N=C/c1c(Cl)cccc1Cl [E-GA, trans-guanabenz]
